This note sets out measurements from US4943570A, “Benzimidazolesulfonamides and imidazopyridinesulfonamides, and their application as drugs” (Laboratorios Del Dr. Esteve, S.A., priority 1986, dated 1990).

A short description of data set [1]: Acute toxicity in mice (Litchfield and Wilcoxon). The class given is in vivo. The settings on record: mouse, in vivo, po, administered orally. Here is the method: (§1) Method of Litchfield and Wilcoxon (J. T. Litchfield and E. J. Wilcoxon: J. Pharmacol. Exp. Therap., 96, 19-113 (1949)).
(§2) The product is administered orally as a suspension in gum arabic at a concentration of 5% in double-distilled water. The volume administered is 10 - ml/kg. The 50% lethal dose (LD50) is calculated by the method cited.

Data set [2] relates to gastric acid secretion. Description: Inhibition of gastric acid secretion in Shay rats (Shay's method, pylorus ligation). The class given is in vivo, Male Wistar rats. Particulars: Rattus norvegicus, administered intraduodenally; for ED50: 2 h; for inhibition in vivo at 40 mg/kg: intraduodenal, 2 h after pylorus ligation, read-out: Percentage inhibition of gastric acid secretion. An excerpt: Shay's method [H. Shay; S. A. Komarov; S. S. Fels; D. Merange: M. Grvenstein; H. Siplet: Gastroenterology, 5, 43 (1945)--F. E. Visscber; P. H. Seay: A. P. Taxelaar; W. Veldkamp; M. J. Vander Brook: J. Pharmac. Exp. Ther., 110, 188 (1954)--"Animal Experiments in Pharmacological Analysis", F. R. Domer: C. C. Thomas, published by Springfield, Ill., U.S.A., 1970, p. 140].
Male Wistar rats weighing 200 to 250 grams are used in this test; they are fasted from the day preceding the day of the test, with free access to water. Groups containing a minimum of 4 animals each are used.
The rats are anesthetized with ethyl ether, a laparotomy is performed on them and their pylorus is ligated; the abdominal incision is then sewn up. The administration of the products, with the vehicle for the control group, is effected intraduodenally (i.d.) before the abdominal incision is sewn up. The dose administered in the first test is 40 mg/kg and the 50% effective dose (ED50), administered intraduodenally, is also determined in a second test. The vehicle used is gum arabic at a concentration of 5% w/v in double-distilled water.
Two hours after ligation of the pylorus, the rats are sacrificed by prolonged anesthesia with ethyl ether and the volume of gastric juice is measured; the total acidity is determined by means of a pH meter equipped with an automatic burette. For each product and each dose tested, the percentage inhibition of gastric acid secretion is determined relative to the control group.

The test system of data set [3] is gastric lesions induced by ethanol. Briefly: Gastric cytoprotection: inhibition of gastric lesions induced by ethanol. The class given is in vivo, Male Wistar rats. Particulars: 40 mg/kg oral. The protocol: Male Wistar rats weighing 150 to 200 grams are used in this test; they are fasted for 24 hours, but with water "ad libitum". Groups containing a minimum of 5 animals each are used.
At the beginning of the study, the rats receive the products described, or the vehicle in the case of the rats in the control group, by oral administration using a stomach tube. The dose administered for the products described is 40 mg/kg. The vehicle employed is gum arabic at a concentration of 5% w/v in double-distilled water.
Thirty minutes after the treatment, the rats receive 1 ml of absolute ethanol by oral administration using a stomach tube. One hour after the treatment with ethanol, the rats are sacrificed by prolonged anesthesia with ethyl ether, their stomachs are extracted and opened along the greater curvature and the lesions in the stomach mucosa are evaluated. For this evaluation, the hemorrhage points are counted and the size of the necrotic ulcers is measured.
For each product tested, the percentage inhibition of gastric lesions is determined relative to the control group.

The test system of data set [4] is gastric lesions induced by stress due to immobilization and cold. Briefly: Ulcer-inhibiting activity: inhibition of gastric lesions induced by stress due to immobilization and cold. The data set is classed as in vivo, Male Wistar rats. The settings on record: 40 mg/kg oral. Here is the method: Male Wistar rats weighing […] to 200 grams are used in this test; they are fasted in individual cages for 24 hours before the study begins, but with water "ad libitum". Groups containing a minimum of 5 animals each are used.
At the start of the study, the rats receive the products described, or alternatively the vehicle in the case of the control group, by oral administration using a stomach tube. The administered dose of the products described is 40 mg/kg. The vehicle used is gum arabic at a concentration of 5% w/v in double-distilled water.
Immediately after the treatment, the rats are introduced into confined enclosures in the form of a plastic tube with a diameter of about 5 cm and a variable length which can be adapted to the size of the rat. One hour after the treatment, the rats, in their enclosures, are placed in a refrigerator at -5° C. for 3 hours. Immediately after exposure to the cold, the rats are killed by prolonged anesthesia with ethyl ether, the stomachs are extracted and opened along the greater curvature and the lesions in the stomach mucosa are evaluated. For this evaluation, the hemorrhage points are counted and the size of the necrotic ulcers is measured.
For each product and each dose tested, the percentage inhibition of gastric lesions is determined relative to the control group.

The subject of data set [5] is mice. Briefly: Acute toxicity in mice (Litchfield and Wilcoxon). The data set is classed as in vivo. The settings on record: administered orally; female. The protocol:
as §1, §2

The mark [6] stands for this setting: relative to control (gum arabic).

As to `O=S(=O)(NCCN1CCOCC1)c1nc2ccccc2[nH]1` [Example 6], the figures for the median lethal dose (LD50) in data set [1] (female) and in data set [1] (male) were 2600 mg/kg and 3300 mg/kg, respectively.
Turning to `O=S(=O)(NCCCN1CCOCC1)c1nc2ccccc2[nH]1` [Example 8, N-[3-(4-Morpholinopropyl)]-1H-benzimidazole-2-sulfonamide], the 50% lethal dose (LD50) in data set [1] (female) and in data set [1] (male) was 6400 mg/kg in each case.
In the case of `O=S(=O)(Nc1ccc(Cl)cc1)c1nc2cc(Cl)ccc2[nH]1` [Example 16, 5-Chloro-N-(4-chlorophenyl)-1H-benzimidazoIe-2-sulfonamide], the figures for the LD50 in data set [1] (female) and in data set [1] (male) were 1500 mg/kg and 2000 mg/kg, respectively. In data set [2], this compound registered an ED50 of 42.6 mg/kg. Also, the inhibition in vivo at 40 mg/kg in data set [2] was 48%.
With `CCN(CC)CCCC(C)NS(=O)(=O)c1nc2cc(Cl)ccc2[nH]1` (centres unmarked) [Example 18, 5-Chloro-N-(4-diethylamino-1-methylbutyl)-1H-benzimidazole-2-sulfonamide], the LD50 was 4000 mg/kg in data set [1] (female) and 2000 mg/kg in data set [1] (male). This compound showed an ED50 in data set [2] of 53.5 mg/kg. Besides, in data set [2], the inhibition in vivo at 40 mg/kg came out at 41%.
With `CCNS(=O)(=O)c1nc2c([N+](=O)[O-])cccc2[nH]1` [Example 21, N-Ethyl-4-nitro-1H-benzimidazole-2-sulfonamide], the LD50 in data set [1] (female) and in data set [1] (male) was above 1600 mg/kg each time.
With `O=S(=O)(NCc1ccccn1)c1nc2ccccc2[nH]1` [Example 31, N-(2-Pyridylmethyl)-1H-benzimidazole-2-sulfonamide], the median lethal dose (LD50) in data set [1] (female) and in data set [1] (male) was above 6400 mg/kg in each case.
As for `NS(=O)(=O)c1nc2cc([N+](=O)[O-])ccc2[nH]1` [Example 34, 5-Nitro-1H-benzimidazole-2-sulfonamide], in data set [1] (female), the LD50 was above 6400 mg/kg. The compound further gave an LD50 in data set [1] (male) above 6400 mg/kg. Further, in data set [2], it took a dose of 29.9 mg/kg to reach the 50% effect level (ED50) and the inhibition in vivo at 40 mg/kg was 63%.
As to `O=[N+]([O-])c1ccc2[nH]c(S(=O)(=O)NCCCN3CCOCC3)nc2c1` [Example 38, N-[3-(4-Morpholinopropyl)]-5-nitro-1H-benzimidazole-2-sulfonamide], the LD50 in data set [1] (female) and in data set [1] (male) was above 6400 mg/kg in each case.
For `CCN(CC)S(=O)(=O)c1nc2ccc([N+](=O)[O-])cc2n1CC` [Example 71, 6-nitro-1,N,N-triethyl-1H-benzimidazole-2-sulfonamide], the LD50 in data set [1] (female) and in data set [1] (male) was 6400 mg/kg throughout.
For `O=S1(=O)c2nc3ccccc3n2CCN1CCCN1CCOCC1` [Example 92], the LD50 in data set [1] (female) and in data set [1] (male) was 6400 mg/kg each time.
On to `COc1ccc(CCN2CCn3c(nc4ccccc43)S2(=O)=O)cc1OC` [Example 99, 3,4-Dihydro-2H-2-[2-(3,4-dimethoxyphenylethyl)]-[1,2,5]-thiadiazino[5,6-a]benzimidazole 1,1-dioxide], for which the LD50 in data set [1] (female) and in data set [1] (male) was above 3200 mg/kg each time.
For `CCN1CCn2c(nc3ccc([N+](=O)[O-])cc32)S1(=O)=O` [Example 127, 3,4-Dihydro-2H-2-ethyl-7-nitro-[1,2,5]-thiadiazino-[5,6-a]benzimidazole 1,1-dioxide], the LD50 in data set [1] (female) and in data set [1] (male) was above 6400 mg/kg in each case. Moreover, it took a dose of 52.4 mg/kg to reach the 50% effect level in data set [2] (ED50). In addition, the inhibition in vivo at 40 mg/kg in data set [2] turned out to be 56.3%.
As to `CCN1CCn2c(nc3cc([N+](=O)[O-])ccc32)S1(=O)=O` [Example 128, 3,4-Dihydro-2H-2-ethyl-8-nitro-[1,2,5]-thiadiazino-[5,6-a]benzimidazole 1,1-dioxide], the LD50 in data set [1] (female) is above 3200 mg/kg; in data set [1] (male), above 2200 mg/kg.
With `CCCCN1CCn2c(nc3cc([N+](=O)[O-])ccc32)S1(=O)=O` [Example 133, 2H-2-Butyl-3,4-dihydro-8-nitro-[1,2,5]-thiadiazino-[5,6-a]benzimidazole 1,1-dioxide], the LD50 in data set [1] (female) and in data set [1] (male) was above 3200 mg/kg throughout. This compound came in with an ED50 in data set [2] of 58.3 mg/kg. Further, the inhibition in vivo at 40 mg/kg in data set [2] came out at 40%.
The compound `CCCCN1CCn2c(nc3ccc([N+](=O)[O-])cc32)S1(=O)=O` [Example 134, 2H-2-butyl-3,4-dihydro-7-nitro-[1,2,5]-thiadiazino[5,6-a]benzimidazole 1,1-dioxide] came in with an LD50 in data set [1] (female) above 3200 mg/kg. The LD50 in data set [1] (male) was above 3200 mg/kg. Moreover, in data set [2], the 50% effect level (ED50) was put at a dose of 20.7 mg/kg and the inhibition in vivo at 40 mg/kg was determined as 70.3%.
Regarding `O=[N+]([O-])c1ccc2nc3n(c2c1)CCN(CCCN1CCOCC1)S3(=O)=O` [Example 142], the “Evaluation of the lesions (x ± standard deviation)” value in data set [3] is 0. Besides, the “Inhibition of gastric lesions” value in data set [3] (setting [6]) is listed as 100%. In addition, in data set [2], the 50% effect level (ED50) was put at a dose of 17.5 mg/kg and the inhibition in vivo at 40 mg/kg was 79.4%.
As to `CCN(CC)CCCC(C)N1CCn2c(nc3ccc([N+](=O)[O-])cc32)S1(=O)=O` (centres unmarked) [Example 144, 2H-2-(4-Diethylamino-1-methylbutyl)-3,4-dihydro-7-nitro-[1,2,5,]-thiadiazino[5,6-a]benzimidazole 1,1-dioxide], in data set [2], the ED50 was determined as 10 mg/kg and the inhibition in vivo at 40 mg/kg stood at 93.7%. The “Inhibition of gastric lesions” value in data set [4] (setting [6]) is given as 100%. The “Evaluation of the lesions (x ± standard deviation)” value in data set [4] (stress (immobilization and cold), 10 rats) stood at 0.
With `CCN1C(c2ccc([N+](=O)[O-])cc2)=Cn2c(nc3ccc([N+](=O)[O-])cc32)S1(=O)=O` [Example 179, 2H-2-Ethyl-7-nitro-3-(4-nitrophenyl)-[1,2,5]-thiadiazino-[5,6-a]benzimidazole 1,1-dioxide], the LD50 in data set [1] (male) and in data set [5] was above 6400 mg/kg in each case.
For `O=[N+]([O-])c1ccc2c(c1)nc1n2CC2CCCCN2S1(=O)=O` (centres unmarked) [Example 181, 1,2,3,4,13,14-Hexahydro-9-nitropyrido[1',2':2,3]-[1,2,5-thiadiazino5,6-a]benzimidazole 6,6-dioxide], in data set [2], it took a dose of 62 mg/kg to reach the 50% effect level (ED50) and the inhibition in vivo at 40 mg/kg stood at 43.4%.
With `O=[N+]([O-])c1ccc2nc3n(c2c1)CC1CCCCN1S3(=O)=O` (centres unmarked) [Example 182, 1,2,3,4,13,14-Hexahydro-10-nitropyrido[1',2':2,3]-[1,2,5]-thiadiazino[5,6-a]benzimidazole 6,6-dioxide], in data set [2], the median effective dose (ED50) was 61.2 mg/kg and the inhibition in vivo at 40 mg/kg was found to be 42.1%.
